Measurements published in patent publication US12343326B2, “Psychoactive medicines and their use for treating psychiatric and neurological conditions and disorders” (Transcend Therapeutics, Inc., priority 2021, dated 2025).

Legend:
Experiment in all cases: β-arrestin based GPCR screen (PathHunter / GPCRmax), agonist mode
Format in all cases: cell-based
Set-up in all cases: host or cells: PathHunter cell lines
168 GPCRs [1] = molecular target: 168 GPCRs (Homo sapiens, UniProt Q99500)
Protocol: (§1) For agonist determination, cells were incubated with sample to induce response. […] Vehicle concentration was 1%.

168 GPCRs [2] = molecular target: 168 GPCRs (Homo sapiens, UniProt Q99705)
Protocol: as §1

168 GPCRs [3] = molecular target: T1, 168 GPCRs (Homo sapiens, UniProt Q5NUL3)
T1 sequence (Q5NUL3 1-361): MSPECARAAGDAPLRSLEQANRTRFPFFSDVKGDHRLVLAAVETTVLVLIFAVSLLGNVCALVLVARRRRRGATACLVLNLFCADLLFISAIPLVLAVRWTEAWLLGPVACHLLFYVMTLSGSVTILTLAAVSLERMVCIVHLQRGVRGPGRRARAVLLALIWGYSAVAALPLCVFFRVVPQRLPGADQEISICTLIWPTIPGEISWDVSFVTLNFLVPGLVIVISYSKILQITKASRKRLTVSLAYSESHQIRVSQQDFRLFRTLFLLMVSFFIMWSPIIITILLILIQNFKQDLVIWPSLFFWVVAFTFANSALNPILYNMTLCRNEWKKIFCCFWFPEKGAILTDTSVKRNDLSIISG
Protocol: as §1

168 GPCRs [4] = molecular target: 168 GPCRs (Homo sapiens, UniProt P08908); conditions: HTR1A
Protocol: as §1

168 GPCRs [5] = molecular target: 168 GPCRs (Homo sapiens, UniProt P33032); conditions: MC5R
Protocol: as §1

168 GPCRs [6] = molecular target: 168 GPCRs (Homo sapiens, UniProt P37288); conditions: AVPR1A, Agonist
Protocol: as §1

168 GPCRs [7] = molecular target: 168 GPCRs (Homo sapiens, UniProt Q9HBW0)
Protocol: as §1

168 GPCRs [8] = molecular target: 168 GPCRs (Homo sapiens, UniProt Q96G91)
Protocol: as §1

168 GPCRs [9] = molecular target: 168 GPCRs (Homo sapiens, UniProt P14416); conditions: DRD2L
Protocol: as §1

168 GPCRs [10] = molecular target: 168 GPCRs (Homo sapiens, UniProt P47900)
Protocol: as §1

168 GPCRs [11] = molecular target: 168 GPCRs (Homo sapiens, UniProt P30550); conditions: GRPR
Protocol: as §1

168 GPCRs [12] = molecular target: 168 GPCRs (Homo sapiens, UniProt O43614)
Protocol: as §1

168 GPCRs [13] = molecular target: 168 GPCRs (Homo sapiens, UniProt P29371)
Protocol: as §1

168 GPCRs [14] = molecular target: 168 GPCRs (Homo sapiens, UniProt Q96P65)
Protocol: as §1

168 GPCRs [15] = molecular target: 168 GPCRs (Homo sapiens, UniProt Q13324)
Protocol: as §1

168 GPCRs [16] = molecular target: 168 GPCRs (Homo sapiens, UniProt Q9GZQ6)
Protocol: as §1

168 GPCRs [17] = molecular target: 168 GPCRs (Homo sapiens, UniProt P46091)
Protocol: as §1

168 GPCRs [18] = molecular target: 168 GPCRs (Homo sapiens, UniProt P30872)
Protocol: as §1

Chain of 168 GPCRs (Homo sapiens, UniProt P14416) (P14416 whole entry): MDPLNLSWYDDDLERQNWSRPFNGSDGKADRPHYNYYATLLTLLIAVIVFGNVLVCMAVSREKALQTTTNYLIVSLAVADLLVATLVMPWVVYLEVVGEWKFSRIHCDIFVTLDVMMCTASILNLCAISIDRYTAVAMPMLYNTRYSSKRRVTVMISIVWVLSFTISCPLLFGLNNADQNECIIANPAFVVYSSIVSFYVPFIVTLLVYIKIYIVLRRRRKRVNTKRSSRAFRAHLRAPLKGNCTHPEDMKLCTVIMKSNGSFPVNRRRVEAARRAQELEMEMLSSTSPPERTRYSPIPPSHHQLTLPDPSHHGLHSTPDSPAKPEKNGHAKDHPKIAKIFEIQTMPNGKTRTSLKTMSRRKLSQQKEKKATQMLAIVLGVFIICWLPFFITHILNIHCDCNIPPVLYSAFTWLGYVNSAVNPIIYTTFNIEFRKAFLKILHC
Chain of 168 GPCRs (Homo sapiens, UniProt Q96P65) (Q96P65 whole entry): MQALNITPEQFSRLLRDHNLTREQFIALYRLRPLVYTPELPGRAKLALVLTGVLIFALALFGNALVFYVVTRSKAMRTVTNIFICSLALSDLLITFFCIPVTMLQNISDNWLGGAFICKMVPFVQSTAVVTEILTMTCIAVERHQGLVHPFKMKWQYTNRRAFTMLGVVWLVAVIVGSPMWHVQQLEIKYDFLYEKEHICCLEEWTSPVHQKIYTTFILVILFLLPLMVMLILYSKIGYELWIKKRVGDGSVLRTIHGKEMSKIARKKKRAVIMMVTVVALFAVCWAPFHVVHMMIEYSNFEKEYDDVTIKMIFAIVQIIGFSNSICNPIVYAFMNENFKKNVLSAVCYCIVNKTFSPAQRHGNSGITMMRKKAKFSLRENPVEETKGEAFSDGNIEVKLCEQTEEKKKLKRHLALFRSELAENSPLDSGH
Chain of 168 GPCRs (Homo sapiens, UniProt Q9HBW0) (Q9HBW0 whole entry): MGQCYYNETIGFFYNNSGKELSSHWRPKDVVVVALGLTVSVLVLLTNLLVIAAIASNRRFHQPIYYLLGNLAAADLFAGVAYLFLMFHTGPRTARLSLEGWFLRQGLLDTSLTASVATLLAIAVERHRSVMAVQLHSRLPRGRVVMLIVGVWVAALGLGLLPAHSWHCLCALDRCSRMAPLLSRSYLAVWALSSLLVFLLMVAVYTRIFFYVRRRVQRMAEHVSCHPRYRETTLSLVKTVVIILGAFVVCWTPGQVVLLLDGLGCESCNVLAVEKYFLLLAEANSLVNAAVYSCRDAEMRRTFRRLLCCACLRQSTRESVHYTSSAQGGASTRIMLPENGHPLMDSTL
Chain of 168 GPCRs (Homo sapiens, UniProt Q9GZQ6) (Q9GZQ6 whole entry): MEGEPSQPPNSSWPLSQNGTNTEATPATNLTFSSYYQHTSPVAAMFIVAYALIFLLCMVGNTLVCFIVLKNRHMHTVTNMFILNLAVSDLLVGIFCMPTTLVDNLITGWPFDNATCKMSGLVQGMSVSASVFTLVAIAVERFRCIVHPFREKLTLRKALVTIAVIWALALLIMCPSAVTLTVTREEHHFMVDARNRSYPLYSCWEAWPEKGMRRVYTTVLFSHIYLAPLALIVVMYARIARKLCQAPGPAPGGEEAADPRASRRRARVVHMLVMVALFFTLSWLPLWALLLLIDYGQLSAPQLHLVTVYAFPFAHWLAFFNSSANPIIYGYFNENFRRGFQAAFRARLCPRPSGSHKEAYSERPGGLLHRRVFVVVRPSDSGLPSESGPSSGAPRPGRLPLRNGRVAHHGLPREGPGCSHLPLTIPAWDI
Chain of 168 GPCRs (Homo sapiens, UniProt P30550) (P30550 whole entry): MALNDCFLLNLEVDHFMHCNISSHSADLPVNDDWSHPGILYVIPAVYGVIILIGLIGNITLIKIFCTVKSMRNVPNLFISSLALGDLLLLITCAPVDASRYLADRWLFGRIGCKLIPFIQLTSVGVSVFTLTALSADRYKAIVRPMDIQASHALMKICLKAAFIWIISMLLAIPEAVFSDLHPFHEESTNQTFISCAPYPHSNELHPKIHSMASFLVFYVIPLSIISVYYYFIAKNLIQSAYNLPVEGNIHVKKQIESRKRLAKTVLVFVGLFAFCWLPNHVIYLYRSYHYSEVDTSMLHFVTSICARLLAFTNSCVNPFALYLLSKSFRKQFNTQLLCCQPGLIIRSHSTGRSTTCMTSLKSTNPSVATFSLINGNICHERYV
Chain of 168 GPCRs (Homo sapiens, UniProt O43614) (O43614 whole entry): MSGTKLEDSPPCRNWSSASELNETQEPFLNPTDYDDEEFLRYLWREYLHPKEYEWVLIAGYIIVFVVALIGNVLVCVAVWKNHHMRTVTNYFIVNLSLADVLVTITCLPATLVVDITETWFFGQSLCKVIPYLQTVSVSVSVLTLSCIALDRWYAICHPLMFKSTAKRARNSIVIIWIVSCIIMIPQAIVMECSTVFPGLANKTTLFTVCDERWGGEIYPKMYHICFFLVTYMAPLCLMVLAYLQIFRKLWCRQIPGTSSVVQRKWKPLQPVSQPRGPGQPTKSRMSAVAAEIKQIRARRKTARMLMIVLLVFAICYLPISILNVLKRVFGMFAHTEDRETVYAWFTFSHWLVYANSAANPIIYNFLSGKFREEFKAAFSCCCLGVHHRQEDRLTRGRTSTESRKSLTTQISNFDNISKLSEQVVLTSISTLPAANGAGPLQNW
Chain of 168 GPCRs (Homo sapiens, UniProt P37288) (P37288 whole entry): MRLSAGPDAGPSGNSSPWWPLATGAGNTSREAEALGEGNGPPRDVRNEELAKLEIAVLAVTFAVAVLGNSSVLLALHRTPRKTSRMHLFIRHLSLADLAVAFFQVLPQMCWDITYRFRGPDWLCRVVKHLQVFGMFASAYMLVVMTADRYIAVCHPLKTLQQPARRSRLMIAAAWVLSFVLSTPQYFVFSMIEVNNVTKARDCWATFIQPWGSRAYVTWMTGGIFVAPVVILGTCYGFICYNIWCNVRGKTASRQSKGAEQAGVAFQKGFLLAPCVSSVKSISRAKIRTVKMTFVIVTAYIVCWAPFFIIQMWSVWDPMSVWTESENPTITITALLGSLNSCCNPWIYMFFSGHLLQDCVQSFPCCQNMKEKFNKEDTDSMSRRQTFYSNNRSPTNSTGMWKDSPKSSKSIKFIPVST
Chain of 168 GPCRs (Homo sapiens, UniProt Q13324) (Q13324 whole entry): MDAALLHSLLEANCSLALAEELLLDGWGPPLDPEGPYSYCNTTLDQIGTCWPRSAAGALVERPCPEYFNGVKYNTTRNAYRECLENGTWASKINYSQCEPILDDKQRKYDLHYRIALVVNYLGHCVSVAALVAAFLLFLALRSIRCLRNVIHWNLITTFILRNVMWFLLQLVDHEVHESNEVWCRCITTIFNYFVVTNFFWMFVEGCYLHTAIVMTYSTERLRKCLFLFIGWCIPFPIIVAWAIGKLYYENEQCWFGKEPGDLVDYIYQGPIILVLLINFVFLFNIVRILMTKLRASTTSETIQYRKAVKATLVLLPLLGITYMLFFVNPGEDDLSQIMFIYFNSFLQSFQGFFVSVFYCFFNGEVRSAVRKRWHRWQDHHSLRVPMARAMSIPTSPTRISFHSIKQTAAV
Chain of 168 GPCRs (Homo sapiens, UniProt P30872) (P30872 whole entry): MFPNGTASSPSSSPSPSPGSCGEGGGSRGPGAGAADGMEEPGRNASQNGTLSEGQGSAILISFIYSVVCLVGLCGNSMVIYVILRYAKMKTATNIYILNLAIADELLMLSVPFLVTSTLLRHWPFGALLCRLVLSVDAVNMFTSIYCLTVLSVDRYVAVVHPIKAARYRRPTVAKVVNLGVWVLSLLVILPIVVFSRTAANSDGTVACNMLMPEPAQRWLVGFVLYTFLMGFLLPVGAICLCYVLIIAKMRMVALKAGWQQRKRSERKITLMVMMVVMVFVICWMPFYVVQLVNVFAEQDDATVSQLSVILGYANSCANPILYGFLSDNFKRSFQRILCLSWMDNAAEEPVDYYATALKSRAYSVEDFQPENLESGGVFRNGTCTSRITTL
Chain of 168 GPCRs (Homo sapiens, UniProt P29371) (P29371 whole entry): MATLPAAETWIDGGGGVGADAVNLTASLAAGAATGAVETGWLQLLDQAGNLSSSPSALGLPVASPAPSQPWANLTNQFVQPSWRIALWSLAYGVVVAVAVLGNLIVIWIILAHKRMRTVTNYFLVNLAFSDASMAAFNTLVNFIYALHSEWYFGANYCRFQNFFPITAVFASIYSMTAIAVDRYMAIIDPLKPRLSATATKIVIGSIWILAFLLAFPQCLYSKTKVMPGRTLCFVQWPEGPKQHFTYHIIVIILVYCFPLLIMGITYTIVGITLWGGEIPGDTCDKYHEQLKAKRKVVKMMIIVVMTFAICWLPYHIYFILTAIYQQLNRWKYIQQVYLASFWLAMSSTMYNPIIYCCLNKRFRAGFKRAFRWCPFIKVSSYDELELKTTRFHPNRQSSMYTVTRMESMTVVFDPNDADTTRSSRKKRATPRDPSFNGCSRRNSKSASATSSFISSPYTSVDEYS
Chain of 168 GPCRs (Homo sapiens, UniProt P46091) (P46091 whole entry): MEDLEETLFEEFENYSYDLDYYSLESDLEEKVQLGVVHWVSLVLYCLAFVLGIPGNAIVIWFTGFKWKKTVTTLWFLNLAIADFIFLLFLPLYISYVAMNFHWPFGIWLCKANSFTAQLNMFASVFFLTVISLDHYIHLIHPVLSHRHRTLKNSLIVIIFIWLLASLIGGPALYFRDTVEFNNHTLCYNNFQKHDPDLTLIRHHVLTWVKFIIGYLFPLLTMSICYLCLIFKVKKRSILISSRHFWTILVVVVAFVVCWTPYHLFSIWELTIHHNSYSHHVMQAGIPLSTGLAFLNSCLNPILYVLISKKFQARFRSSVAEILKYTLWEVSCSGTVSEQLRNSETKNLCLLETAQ
Chain of 168 GPCRs (Homo sapiens, UniProt P47900) (P47900 whole entry): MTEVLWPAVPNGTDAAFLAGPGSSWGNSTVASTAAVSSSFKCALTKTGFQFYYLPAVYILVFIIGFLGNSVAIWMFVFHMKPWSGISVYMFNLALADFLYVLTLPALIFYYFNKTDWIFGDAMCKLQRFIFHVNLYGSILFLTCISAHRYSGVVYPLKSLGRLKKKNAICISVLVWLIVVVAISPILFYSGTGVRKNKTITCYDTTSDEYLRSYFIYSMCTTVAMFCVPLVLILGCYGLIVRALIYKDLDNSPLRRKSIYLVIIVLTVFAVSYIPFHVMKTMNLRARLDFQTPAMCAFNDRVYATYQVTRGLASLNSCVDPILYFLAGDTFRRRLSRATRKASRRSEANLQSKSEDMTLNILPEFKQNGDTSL

SMILES: CNC(C)C(=O)c1ccc2c(c1)OCO2 (stereo not drawn) [methylone, 3,4-methylenedioxy-N-methylcathinone]
- activity at 10 µM (168 GPCRs [1]; EDG3, Agonist mode, 10 uM): -8.6%
- activity at 1 µM (168 GPCRs [1]; EDG3, Agonist, 1 uM): -9.4%
- activity at 10 µM (168 GPCRs [2]; MCHR1, Agonist mode, 10 uM): 3.1%
- activity at 1 µM (168 GPCRs [2]; MCHR1, Agonist, 1 uM): 3.9%
- activity at 10 µM (168 GPCRs [3]; GPR120, Agonist mode, 10 uM): -5.8%
- activity at 1 µM (168 GPCRs [3]; GPR120, Agonist, 1 uM): -5.1%
- activity at 10 µM (168 GPCRs [4]; Agonist mode, 10 uM): -0.1%
- activity at 1 µM (168 GPCRs [4]; Agonist, 1 uM): 0.8%
- activity at 10 µM (168 GPCRs [5]; Agonist mode, 10 uM): 8.9%
- activity at 1 µM (168 GPCRs [5]; Agonist, 1 uM): -7.9%
- activity at 1 µM (168 GPCRs [6]; 1 uM): -0.6%
- activity at 10 µM (168 GPCRs [6]; 10 uM): -0.5%
- activity at 10 µM (168 GPCRs [7]; EDG4, Agonist mode, 10 uM): -2.1%
- activity at 1 µM (168 GPCRs [7]; EDG4, Agonist, 1 uM): -2.2%
- activity at 10 µM (168 GPCRs [8]; P2RY11, Agonist mode, 10 uM): -0.3%
- activity at 1 µM (168 GPCRs [8]; P2RY11, Agonist, 1 uM): 0.5%
- activity at 10 µM (168 GPCRs [9]; Agonist mode, 10 uM): 0.7%
- activity at 1 µM (168 GPCRs [9]; Agonist, 1 uM): 0.1%
- activity at 10 µM (168 GPCRs [10]; P2RY1, Agonist mode, 10 uM): -4.1%
- activity at 1 µM (168 GPCRs [10]; P2RY1, Agonist, 1 uM): 2.2%
- activity at 10 µM (168 GPCRs [11]; Agonist mode, 10 uM): -0.1%
- activity at 1 µM (168 GPCRs [11]; Agonist, 1 uM): 0%
- activity at 10 µM (168 GPCRs [12]; HCRTR2, Agonist mode, 10 uM): 0.2%
- activity at 1 µM (168 GPCRs [12]; HCRTR2, Agonist, 1 uM): 0.2%
- activity at 10 µM (168 GPCRs [13]; TACR3, Agonist mode, 10 uM): 1.1%
- activity at 1 µM (168 GPCRs [13]; TACR3, Agonist, 1 uM): 0.8%
- activity at 10 µM (168 GPCRs [14]; GPR103, Agonist mode, 10 uM): 3.13%
- activity at 1 µM (168 GPCRs [14]; GPR103, Agonist, 1 uM): 0.8%
- activity at 10 µM (168 GPCRs [15]; CRHR2, Agonist mode, 10 uM): 0.9%
- activity at 1 µM (168 GPCRs [15]; CRHR2, Agonist, 1 uM): 0.9%
- activity at 10 µM (168 GPCRs [16]; NPFFR1, Agonist mode, 10 uM): -5.6%
- activity at 1 µM (168 GPCRs [16]; NPFFR1, Agonist, 1 uM): -4.6%
- activity at 10 µM (168 GPCRs [17]; GPR1, Agonist mode, 10 uM): -0.7%
- activity at 1 µM (168 GPCRs [17]; GPR1, Agonist, 1 uM): -0.5%
- activity at 10 µM (168 GPCRs [18]; SSTR1, Agonist mode, 10 uM): -7.4%
- activity at 1 µM (168 GPCRs [18]; SSTR1, Agonist, 1 uM): -5.3%
